Source: US6986997B1, “Method for screening using an OAT1 transporter protein” (Fuji Bio Medix Co., Ltd., priority 1997, dated 2006)
Read-outs that look alike come from different tables or passages of the source.

Key:
[1] = test system: basolateral organic anion transport system; conditions: Ullrich and Rumrich, Am. J. Physiol. 254, F453-462, 1988; read-out: Km value previously reported for the basolateral organic anion transport system; cited from earlier work
rat OAT1 [2] = molecular target: T1, rat OAT1 (Rattus norvegicus, UniProt O35956); test: Uptake of radio labeled substances into oocytes expressing OAT1; assay type: cell-based
T1 construct: with full-length OAT1 cDNA labeled with; expressed in transfected cells; host or cells: Xenopus laevis oocytes injected with in vitro transcribed cRNA
T1 sequence (O35956 1-551): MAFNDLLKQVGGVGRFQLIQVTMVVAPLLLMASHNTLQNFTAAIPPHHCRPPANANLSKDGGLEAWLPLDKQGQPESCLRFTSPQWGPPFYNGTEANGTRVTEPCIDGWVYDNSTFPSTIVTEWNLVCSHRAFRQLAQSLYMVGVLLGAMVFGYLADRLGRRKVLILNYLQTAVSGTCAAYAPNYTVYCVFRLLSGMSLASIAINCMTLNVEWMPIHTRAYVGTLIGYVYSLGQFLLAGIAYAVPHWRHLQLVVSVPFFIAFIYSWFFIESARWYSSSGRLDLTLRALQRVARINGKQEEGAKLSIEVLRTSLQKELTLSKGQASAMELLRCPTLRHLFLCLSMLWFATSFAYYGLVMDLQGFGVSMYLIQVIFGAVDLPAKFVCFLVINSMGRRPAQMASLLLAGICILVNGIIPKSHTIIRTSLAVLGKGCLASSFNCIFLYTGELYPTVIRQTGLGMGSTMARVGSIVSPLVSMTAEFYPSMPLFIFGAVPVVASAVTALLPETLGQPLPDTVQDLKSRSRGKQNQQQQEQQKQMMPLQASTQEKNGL
Excerpt: Several radio labeled compounds were examined whether they are taken up into oocytes via OAT1.
Control oocytes were those which were not injected with cRNA.

rat OAT1 [3] = molecular target: T1, rat OAT1; test: Cis-inhibition of 14C-PAH uptake in oocytes injected with rat OAT1 cRNA; assay type: cell-based; conditions: 2 μM 14C-PAH, 2 mM non-labeled substance, ND96 solution; for inhibition at 1 h, 2 mM: rat, oocytes injected with rat OAT1 cRNA, probe 14C-PAH (p-aminohippurate), read-out: inhibition of OAT1-mediated 14C-PAH uptake
[4] = versus control oocytes not injected with cRNA

SMILES	transport of radio labeled substance into oocytes expressing OAT1 (rat OAT1 [2]; [4])	cis-inhibitory effect on OAT1-mediated 14C-PAH uptake (in words) (rat OAT1 [3])	inhibition at 1 h, 2 mM (rat OAT1 [3])	also measured
Nc1ccc(C(=O)NCC(=O)O)cc1 [PAH, para-aminohippurate]				Km [1]: 80 µM
C[C@H](CCC(=O)NCCS(=O)(=O)O)[C@H]1CC[C@H]2[C@@H]3[C@H](O)C[C@@H]4C[C@H](O)CC[C@]4(C)[C@H]3C[C@H](O)[C@]12C [^3H-taurocholic acid, taurocholic acid]				transport of radio labeled substance into oocytes expressing OAT1 (rat OAT1 [2]): not detected
CC[N+](CC)(CC)CC [^14C-TEA, tetraethylammonium, reference compound]	not detected			
Nc1ncnc2c1ncn2[C@@H]1O[C@@H]2COP(=O)(O)O[C@H]2[C@H]1O [cyclic-AMP]		inhibited		transport of radio labeled substance into oocytes expressing OAT1 (rat OAT1 [2]): transported
Nc1nc2c(ncn2[C@@H]2O[C@@H]3COP(=O)(O)O[C@H]3[C@H]2O)c(=O)[nH]1 [cyclic-GMP]	transported	inhibited		
C=C(CC)C(=O)c1ccc(OCC(=O)O)c(Cl)c1Cl [ethacrynic acid]			> 85%	
COc1ccc2c(c1)c(CC(=O)O)c(C)n2C(=O)c1ccc(Cl)cc1 [indomethacin]			> 85%	
CCn1cc(C(=O)O)c(=O)c2ccc(C)nc21 [nalidixic acid]			> 85%	
O=c1[nH]c(=O)c2[nH]c(=O)[nH]c2[nH]1 [uric acid]	transported	inhibited		
CCCC(CCC)C(=O)O [valproic acid]			> 85%	
